Columns and labels:
ATase1 and ATase2 = test: Western blot of ATase1 and ATase2 levels in CHO cells over-expressing transgenic ATase1 or ATase2; assay type: cell-based, hamster; details: 10 μM, 48 hours
Procedure: FIG. 4. Compound 9 causes degradation of the ATases. (A) H4 cells were treated with the indicated compounds (10 μM) for 48 hours prior to Western blot assessment of BACE1 and ATase1/ATase2 levels in total cell lysates. (B, D and E) Quantification of changes are expressed as percent of control (no treatment) and are the average (n=3)±S.D.*, P<0.05; **, P<0.005; ^#, P<0.0005. (C) ELISA determination of secreted Aβ in the conditioned media of the experiment described in (A). Results are expressed as percent of control (no treatment) and are the average (n=3)±S.D.*, P<0.05; **, P<0.005. (F) CHO cells over-expressing either ATase1 or ATase2 were treated with compound 9 (10 μM) for 48 hours prior to Western blot assessment of ATase1 and ATase2 levels in total cell lysates.
Western blotting was performed on a 4-12% Bis-Tris SDS-PAGE system (NuPAGE; Invitrogen, Carlsbad, Calif., USA) as described previously (Costantini et al., 2006; Jonas et al., 2008; Jonas et al., 2010; Ko and Puglielli, 2007; Ko and Puglielli, 2009; Pehar et al., 2010). […]

Aβ = Aβ levels in brain homogenates (cortex) of APP695/swe mice; assay type: in vivo, mouse
Procedure: A group of non-transgenic and APP695/swe mice were fed a diet containing 50 mg/kg/day of compound 9. Treatment started at weaning (˜6 weeks of age) and lasted 4 months. At the end of treatment, the animals were sacrificed and the electrophysiological properties of hippocampal brain slices (as induced by theta burst stimulation to the Schaffer collaterals) were studied.
Note that at this age, the animals have not yet developed plaques. As expected from our previous results in cellular models (Ko and Puglielli, 2009), no effect on the Aβ42/Aβtotal ratio was observed (data not shown). In fact compound 9 affects BACE1 levels and, as such, impacts on the generation of all Aβ species.

[1] = tested on: cytosolic and nuclear proteins, histone proteins H3 and H4; test: Lysine acetylation profile of cytosolic and nuclear proteins in H4 cells; assay type: cell-based, human; details: 48 hours
Procedure: FIG. 8. […] (A and B) H4 cells were treated with either compound 9 or 19 for 48 hours prior to Western blot assessment of the acetylation profile of cytosolic (A) and nuclear (B) proteins. (C) The nuclear fraction used in (B) was also used to assess the lysine acetylation profile of the histone proteins H3 and H4.
Western blotting was performed on a 4-12% Bis-Tris SDS-PAGE system (NuPAGE; Invitrogen, Carlsbad, Calif., USA) as described previously (Costantini et al., 2006; Jonas et al., 2008; Jonas et al., 2010; Ko and Puglielli, 2007; Ko and Puglielli, 2009; Pehar et al., 2010). The following antibodies were used in this study: anti-acetylated lysine (monoclonal; cat. no. ab409; Abcam, Cambridge, Mass., USA); anti-BACE1 (polyclonal; cat. no. ab2077; Abcam); anti-Myc (monoclonal; cat. no. sc-40; santa cruz, Santa Cruz, Calif., USA); anti-ATases/NAT8 (polyclonal; cat. no. AP4957c; Abgent, San Diego, Calif., USA); anti-actin (monoclonal; cat. no. A1978; Sigma, St Louis, Mo., USA); anti-C99 (monoclonal; cat. no. M066-3; MBL, Woburn, Mass., USA); anti-acetylated H3 (polyclonal; cat. no. 06-599, Millipore, Billerica, Mass.); anti-acetylated H4 (polyclonal; cat. no. 06-866, Millipore, Billerica, Mass.); anti-αPCNA (polyclonal; cat. no. AP2835b, Abgent, San Diego, Calif., USA).
Cytosolic and nuclear extracts were prepared as described before (Ko and Puglielli, 2007). For cytosolic extracts, cells were homogenized in homogenization buffer containing 25 mM Tris-HCl, pH 7.4, 0.5 mM EDTA, 0.5 mM EGTA, and a protease inhibitor mixture. The homogenates were centrifuged at 14,000×g for 15 min, and supernatants were collected as cytosolic proteins.
For nuclear extracts cells were scraped into ice-cold phosphate-buffered saline and collected by centrifugation. The cell pellets were suspended in 3 volumes of lysis buffer (20 mM Hepes, pH 7.9, 10 mM KCl, 1 mM EDTA, pH 8.0, 0.2% Nonidet P-40, 10% glycerol, and a protease inhibitor mixture) followed by incubation on ice for 10 min. Cell suspensions were gently pipetted up and down; the lysates were then centrifuged at 14,000×g for 5 min at 4° C. to obtain nuclear pellets. Nuclear pellets were washed twice with cell lysis buffer (lacking Nonidet P-40 and protease inhibitor mixture) and then resuspended in 2 volumes of nuclear extract buffer (20 mM Hepes, pH 7.9, 10 mM KCl, 1 mM EDTA, pH 8.0, 420 mM NaCl, 20% glycerol, and a protease inhibitor mixture). The nuclei were extracted by incubation at 4° C. for 30 min with gentle agitation followed by centrifugation at 14,000×g at 4° C. for 5 min; the resultant supernatant fraction was used as a nuclear extract.

Question: With O=c1c(Cl)c2oc3ccccc3nc-2c2ccccc12 [Compound 9] as the molecule, how does the “levels of transgenic ATase1 and ATase2” value (ATase1 and ATase2) read?
Answer: Its value is “significantly decreases”.

Question: And the “reduction in soluble Aβ in the brain homogenates” value (Aβ; 50 mg/kg/day in diet, 4 months)?
Answer: Its value is about 50%.

Question: And the Aβ (Aβ; brain homogenates (cortex), 50 mg/kg/day in diet, 4 months)?
Answer: The Aβ was 178 ± 14 ng/gr.

Question: What about the Aβ42/Aβtotal ratio (Aβ; data not shown) of the same molecule?
Answer: Its Aβ42/Aβtotal ratio is “no effect”.

Question: What about the “acetylation profile of cytosolic and nuclear proteins” value [1] of the same molecule?
Answer: Its value is “Neither compound 9 nor compound 19 produced significant changes”.

Question: What about the “acetylation profile of the histone protein H3 and H4” value ([1]; nuclear fraction) of the same molecule?
Answer: The value was “slight reduction”.

— patent publication US9522124B2, “Methods for treating Alzheimer's disease” (Wisconsin Alumni Research Foundation, priority 2011, dated 2016)
